Measurements taken from US20170240556A1, “BIFLUORODIOXALANE-AMINO-BENZIMIDAZOLE KINASE INHIBITORS FOR THE TREATMENT OF CANCER, AUTOIMMUNEINFLAMMATION AND CNS DISORDERS” (4SC DISCOVERY GMBH, priority 2012, published 2017).
pIC50: −log10 of the molar value.

Key:
[1] = tested on: Wnt/β-catenin signaling pathway; test: Wnt reporter assay (CellSensor LEF/TCF-bla FreeStyle 293F cells); assay type: cell-based; conditions: Homo sapiens; LEF/TCF-bla 293F cells, LiCl and mWnt3a stimulation
Description: The Wnt reporter assay was performed in stably transfected human HEK293 cells. Wnt signaling was induced by administration of Wnt3a protein and read out by β-Lactamase mediated cleavage of CCF4-AM and subsequent fluorescent detection.
CellSensor LEF/TCF-bla FreeStyle 293F cells (invitrogen #K1677) contain a beta-lactamase reporter gene under control of the β-catenin/LEF/TCF binding elements stably integrated into FreeStyle 293F cells. This cell line can be used to detect antagonists of the Wnt/β-catenin signaling pathway when stimulated by mouse Wnt3a or LiCl. The detection of beta-lactamase is possible with LiveBLAzer FRET—B/G Loading Kit (invitrogen #K1095) with CCF4-AM as subtrate.
Culture Medium: DMEM Medium +10% dialyzed FBS (PAN 2102-P290310), +1% NEAA (PAA M11-003), +1% P/S (Penicillin/Streptomycin, PAA P11-010) +25 mM HEPES (PAA S11-001), +5 μg/ml Blasticidin (PAA P05-017).
Cells (CellSensor LEF/TCF-bla FreeStyle 293F, invitrogen K1677) were split with Culture Medium to reach a confluence at the beginning of the assay of 80-90%.
At start of the assay, cells were harvested from culture and resuspend in assay medium at density of 0,66*10̂6 cells/ml. Subsequently, 60μ1 cell suspension were pipetted in each well of a Poly-D-Lysine 96 well Plate (BD #354640, vertical rows are marked 1 through 12, horizontal lanes are marked A through H),
Plates were subsequently incubated at 37° C. for at least 2 h.
To stimulate with Wnt3a, overnight prestimulation of Wnt signalling pathway with LiCl is necessary. Subsequently, an 8M aqueous LiCl solution was diluted 1:200 in assay medium, and 30 μl of said diluted LiCl solution was plated into the appropriate wells (see below pipetting scheme). Plates were then incubated at 37° C. over night.
Subsequently, compounds and controls were prepared as follows: mWnt3a (R&D 1324-WN, dissolved in PBS+0.1% BSA to 40 μg/ml) was diluted 1:100 in assay medium (=400 ng/ml). Compounds (Cpd) were diluted to a concentration of 10 mM in DMSO to prepare dilution series in assay medium (final concentrations 30 μM, 10 μM, 3 μM, 1 μM, 0.3 μM, 0.1 μM, 0.03 μM and 0.01 μM), which were pipetted into the appropriate wells (see below pipetting scheme). For each dilution of each compound, 3 replicates were tested. Final DMSO concentration was 0.3%.
LiCl and mWnt3a stimulated cells were used as High control (HC), unstimulated cells were used as low control, a blank was prepared from cell free medium plus mWnt3a, and a functional control was prepared with a known Wnt inhibitor (e.g. PKF118-310), final concentrations were as above.
Subsequently, the well was incubated for 5 h at 37° C.
At t=23 hours, FRET reagent mix (Loading Kit with CCF4-AM, Life Technologies #K1096) was prepared; per plate: 138 μl Solution B, 13.8 μl FRET-reagent, and 2300 μl Solution C. 24 μl FRET reagent mix were plated to each well, subsequently plates were incubated for at least 2 h in the dark (it is possible to incubate over night). Subsequently, plates were measured in the BMG FluorStar® plate reader at an emission waveltengths of 460 and 520 nm and with an excitation wavelength of 405 nm.
To determine potential cytotoxicity of the compounds, plates were centrifuge and the supernatant was discarded by dumping the plates. Subsequently, 100 μl Opti-MEM and 50 μl ViaLight (Lonza #LT07-321) Lysis Buffer were added to each well, followed by incubation for 10 min at room temperature (25° C.). Subsequently, 100 μl ViaLight reagent were added to each well, followed by incubation for 2 min at room temperature (25° C.) in the dark. Optionally, 200 μl of the obtained suspension were transferred to a white 96 well plate. The luminescence was measured with a Tecan Ultra plate reader.

[2] = tested on: Hedgehog signaling pathway; test: Hedgehog reporter assay (Gli Reporter - NIH3T3 Cell Line); assay type: cell-based; conditions: Mus musculus; Gli reporter NIH3T3 cells, murine SHH stimulation, 24 h; read-out: HH Assay
Summary of the method: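 Gli-responsive firefly luciferase NIH3T3 cells preincubated with compounds 1 h at 37 °C, then stimulated with 1 μg/ml murine SHH (0.1% DMSO final) for 24 h. Luminescence read as reporter activity; viability multiplexed by GF-AFC protease fluorescence to separate toxicity.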

COc1cccc(C(=O)Nc2nc3cc4c(cc3[nH]2)OC(F)(F)O4)c1 [Compound 56, N-(2,2-difluoro-5H-[1,3]dioxolo[4′,5′:4,5]benzo[1,2-d]imidazol-6-yl)-3-methoxybenzamide]
pIC50 [1]: > 5.30 | pIC50 [2]: ≥ 6.30
